Assay: xn = mol fraction of the nth substance listed
Details: 298.15 K, 101.3 kPa

CCCC[n+]1cccc(C)c1.O=S(=O)([N-]S(=O)(=O)C(F)(F)F)C(F)(F)F + CC(C)O
Details | electrical conductivity [S/m]
x2 = 0.0802 | 0.334
x2 = 0.1045 | 0.41
x2 = 0.1234 | 0.462
x2 = 0.1455 | 0.511
x2 = 0.177 | 0.566
x2 = 0.2193 | 0.613
x2 = 0.2497 | 0.633
x2 = 0.4682 | 0.587
x2 = 0.6921 | 0.441
x2 = 0.9362 | 0.3

CC(C)O + CCCC[n+]1cccc(C)c1.O=S(=O)([N-]S(=O)(=O)C(F)(F)F)C(F)(F)F
Details | electrical conductivity [S/m]
x1 = 1 | 0.27

CCCC[n+]1cccc(C)c1.O=S(=O)([N-]S(=O)(=O)C(F)(F)F)C(F)(F)F + CCO
Details | electrical conductivity [S/m]
x2 = 0.2427 | 0.445
x2 = 0.5689 | 0.809
x2 = 0.7583 | 1.04
x2 = 0.8896 | 0.992
x2 = 0.9196 | 0.883
x2 = 0.9371 | 0.783

CCCC[n+]1cccc(C)c1.O=S(=O)([N-]S(=O)(=O)C(F)(F)F)C(F)(F)F + CO
Details | electrical conductivity [S/m]
x2 = 0 | 0.273
x2 = 0.2345 | 0.453
x2 = 0.5544 | 0.951
x2 = 0.7016 | 1.38
x2 = 0.8346 | 1.93
x2 = 0.882 | 2.1
x2 = 0.9199 | 2.13
